Measured values reported in PubChem BioAssay AID624258 (Broad Institute, 2012).

System: S. cerevisiae SKN7-toxicity growth rescue, plate reader
Test: Yeast SKN7 toxicity growth rescue counterscreen, Saccharomyces cerevisiae, plate reader, dose confirmatory (AID 624258);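 further: growth read after three days of incubation at 30 °C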

Compared with `O=NN(CCc1ccncc1)c1ccc(OCc2ccccc2)cc1`, `O=C(O/N=C(\c1ccccc1)c1ccncc1)c1ccccc1Cl` is 3.1-fold higher in AC40: 2.98 µM for the first, 9.26 µM for the second.

Compared with `Cc1nc(SCC(=O)N2CCN(c3ccccc3)CC2)c2oc3ccccc3c2n1`, `O=C(c1ccco1)N1CCN(C(=O)c2ccccc2OCc2ccc(Cl)cc2)CC1` is 5.4-fold higher in AC40: 3.53 µM for the first, 19.1 µM for the second.

Going from `COc1cc(/C=C2\SC(=S)N(NS(=O)(=O)c3ccc(C)cc3)C2=O)ccc1O` to `Cc1cc(/C=C2\SC(=S)NC2=O)c(C)n1-c1cccc(O)c1`, the AC40 rises from 1.64 µM to 6.18 µM (3.8-fold).

First: CC1CC(C)CC(C)C(O)C(C#N)=CC=CCC(C2CCCC2C(=O)O)OC(=O)CC(O)C(C)C1 (stereo not drawn)
Second: CCCOc1ccc(N2C(=O)CC(N3CCC(C(=O)OCC)CC3)C2=O)cc1 (stereo not drawn)
The AC40 of the first is 1.7-fold higher: 10.3 µM for the first, 6.17 µM for the second.

`CC(C)(C)C(=O)C(Cl)C(=O)Nc1ccccc1` (stereo not drawn) and `O=C(NC1=CC(=O)c2ccccc2C1=O)c1ccccc1` are within 1.5-fold of each other in AC40: 2.17 µM for the first, 3.18 µM for the second.

Going from `Cc1nnc(N=c2ssnc2Cl)o1` to `Cc1oc2c(c1C(=O)c1ccc(Cl)cc1)C(=O)C(=O)c1ccccc1-2`, the AC40 rises from 0.832 µM to 1.27 µM (1.5-fold).

First: O=C(CSc1nc2ccccc2s1)N/N=C/c1cc([N+](=O)[O-])ccc1O
Second: N#C/C(=C\Nc1ccccc1O)c1nc2ccccc2o1
The AC40 of the first is 3.5-fold higher: 3.97 µM for the first, 1.12 µM for the second.

`S=C1SCN(Cc2cccnc2)CN1Cc1cccnc1` and `CCc1ccccc1OCC(=O)Nc1nc(-c2cccnc2)cs1` are within 1.5-fold of each other in AC40: 1.01 µM for the first, 1.23 µM for the second.

First: O=[N+]([O-])c1cc(C(F)(F)F)ccc1NCCc1c[nH]c2ccc(O)cc12
Second: Cc1c(C(=O)NCCSCc2cccc(C(F)(F)F)c2)cnn1-c1ccc(Cl)cc1
The AC40 of the first is 5.9-fold lower: 1.11 µM for the first, 6.53 µM for the second.

Compared with `Cc1ccc(CCNc2ncnc(Cl)c2N)cc1`, `CC(C)(C)n1nc(-c2ccc(Cl)cc2)c2c(N)ncnc21` is 3.3-fold higher in AC40: 3.87 µM for the first, 12.6 µM for the second.

First: COc1ccc(OC)c2c1C(=O)C(Cl)=C(Cl)C2=O
Second: COc1cc(OC)c(-c2c3cc(O)c(=O)cc-3oc3cc(O)c(O)cc23)cc1OC
The AC40 of the first is 2.4-fold lower: 0.66 µM for the first, 1.57 µM for the second.

`S=C(NCCCc1ccccc1)Nc1ccccc1Cl` and `Cc1cccc(C)c1NC(=O)c1nc(S(=O)(=O)Cc2ccccc2)ncc1Cl` are within 1.5-fold of each other in AC40: 5.29 µM for the first, 7.57 µM for the second.

First: COc1ccc(-n2nc(C#N)c(Cl)cc2=O)cc1
Second: Cc1nc(Sc2ccc(Cl)cc2)c(C#N)c(C)c1[N+](=O)[O-]
The AC40 of the first is 5.6-fold higher: 5.22 µM for the first, 0.937 µM for the second.

Compared with `O=C1CC(O)(C(F)(F)F)Oc2c1ccc1ccccc21` (stereo not drawn), `O=C1C(Br)=Cc2cccc3cccc1c23` is 7.1-fold higher in AC40: 0.814 µM for the first, 5.81 µM for the second.

`Nc1[nH]c(=O)ncc1F` and `O=c1[nH][nH]cc1C=Nc1ccccc1O` are within 1.5-fold of each other in AC40: 1.83 µM for the first, 2.18 µM for the second.

`O=C(Cc1ccccc1F)Nc1nc(-c2ccc(F)c(F)c2)cs1` and `O=C(COc1ccc(Cl)cc1)NCCSCc1cccc(Cl)c1` are within 1.5-fold of each other in AC40: 2.54 µM for the first, 3.16 µM for the second.

First: N#C/C(=C\c1cccnc1)c1ccc([N+](=O)[O-])cc1
Second: N#C/C(=C\c1cccc(Oc2ccccc2)c1)C(=O)N1CCOCC1
The AC40 of the first is 2-fold higher: 16.7 µM for the first, 8.47 µM for the second.

First: COc1ccc(C(c2c(O)ccc3ccccc23)N2CCOCC2)c(OC)c1 (stereo not drawn)
Second: CC(C)c1cc(-c2cc(C(=O)NCc3ccccc3)on2)nc(NCC2CC2)n1
The AC40 of the first is 3.4-fold lower: 2.35 µM for the first, 7.9 µM for the second.

Compared with `Cc1ccc(NC(=O)c2cc(N3C(=O)C=CC3=O)ccc2Cl)cc1C`, `Cc1cccc2sc(NNC(=O)c3ccc(S(=O)(=O)N4CC(C)CC(C)C4)cc3)nc12` (stereo not drawn) is 2.2-fold higher in AC40: 0.342 µM for the first, 0.736 µM for the second.

Going from `Cc1ccc(-n2nnnc2C(Cl)c2nnnn2-c2ccc(C)cc2)cc1` to `CC(C)=CCc1c(O)cc(O)c2c1OC(c1ccc(O)cc1)CC2=O` (stereo not drawn), the AC40 rises from 0.497 µM to 12.7 µM (26-fold).

Compared with `COC(=O)C1CCN(C2CC(=O)N(c3cc(C)cc(C)c3)C2=O)CC1` (stereo not drawn), `CCCCCCCN1N=C(C)C(C(=O)c2ccccc2)C1=O` (stereo not drawn) is 8.7-fold lower in AC40: 6.63 µM for the first, 0.764 µM for the second.

For `C=CS(=O)(=O)c1sc(Cl)c(N2CCOCC2)c1[N+](=O)[O-]`, the AC40 was 0.653 µM.
